Here are results for three compounds from patent US20260216055A1, “PLANT-MINERAL COMPOSITION FOR PH-DEPENDENT REGULATION OF TYPE 3 AQUAPORINS BASED ON ALOE BARBADENSIS” (SKYLAB AG, priority 2022, published 2026).

For one data set, the system named is HaCaT cells. As to the kind of experiment: Cytotoxicity estimation of the components on skin keratinocytes (MTT). Format: cell-based. The following applies: 24 hours. The text has this:
The study method is based on the definition of the amount of Type 3 aquaporins in epidermal keratinocytes after adding the components of the composition into HaCaT cell culture medium. At the first stage, cytotoxicity of the components is estimated depending on the concentration of components in the composition, be determining the number of survived cells according to MTT concentration with a color dilution method. Cells of HaCaT line were used in the amount of 10 000 cells per well in a 96-well plate. The testing facilities were as follows: humidified atmosphere with 5% CO2 at 37° C. Incubation time equaled 24 hours. For the negative control, purified water without any components of the composition was used. The number of survived cells was registered with MTT at 570 nm. The number of biological replicates was 3.

Another data set deals with Type 3 aquaporins (AQP3). As to the kind of experiment: Amount of Type 3 aquaporins in skin keratinocytes (HaCaT, sandwich ELISA). In kind it is cell-based. The following applies: Table 7 experiment, 24 hours, Aloe extract 0.01%, trimethylglycine 1%, combination 0.01% + 1% equivalent to active ingredients, Hydagen Aquaporin 1% for the raw material. The text has this: At the second stage, the definition of the amount of Type 3 aquaporins in keratinocytes after cultivation under the standard conditions, using the maximum non-toxic concentration of the component from the previous text. To determine the amount of AQP3, a commercially available test with the use of sandwich-type enzyme-linked immunoassay was used. Cells of HaCaT line with the density of 10^5 cells per well were introduced to the 96-well plate. On the next day, the cell medium was removed and replaced with DMEM+5% FBS 50 μL fresh cell medium to maintain cell growth. Next, 50 μL of samples of the composition under the invention was added, and cultivation was performed for 24 hours. In all the tests, 0.20% sodium chloride was added to the cell medium to regulate osmotic balance and to create physiological conditions to cultivate skin cells. The cultivating environment conditions were as follows: humidified atmosphere with 5% CO2 at 37° C. After incubation, cell supernatant was collected, and the amount of Type 3 aquaporins in skin keratinocytes was determined with ELISA method. […] Only after binding the 3 components of the reagent with AQP3 a stable color could be achieved, which was fixed with sulphuric acid and spectropotometrically detected at 450±10 nm wave length. […]

Another data set deals with skin. The following applies: 2% in body cleansers, 12 hours after the contact with the product; cited from earlier work.
The conditions of data set [1]: aloin in the extract composition; cited from earlier work.

For the compound `C[N+](C)(C)CC(=O)[O-]` [Trimethylglycine, trimethylglycine], the “Vitality of cells, % when adding the components of the composition into the cultural medium” value was 98.8 ± 3.47% in the data set with HaCaT cells (0.03% (weight %) in medium); 99.9 ± 1.47% in the data set with HaCaT cells (0.10% (weight %) in medium); 95.4 ± 2.94% in the data set on HaCaT cells (0.25% (weight %) in medium); 93.5 ± 1.66% in the data set with HaCaT cells (1.00% (weight %) in medium); 90.3 ± 6.82% with HaCaT cells (10.00% (weight %) in medium). Also, in the data set with Type 3 aquaporins (AQP3), the “Increase of AQP3 amount in relation to the negative control, %” value is “+17.92%”. Moreover, the “Amount of AQP3” value in the data set with Type 3 aquaporins (AQP3) (negative control 5.58 ± 0.24) amounted to 6.58 ± 1.08 ng/mL.

Take `CCCCCCCCCCCCOS(=O)(=O)[O-].[Na+]` [sodium lauryl sulfate]: the Transepidermal water loss in the data set with skin is 68.9 g/m^2/h.

For `O=C1c2c(O)cccc2C([C@@H]2O[C@H](CO)[C@@H](O)[C@H](O)[C@H]2O)c2cc(CO)cc(O)c21` (stereo partly drawn) [Aloin], the “UV radiation neutralized when applied on skin surface” value in data set [1] is on record as “up to 30%”.
